Results as given in patent publication US7626042B2, “O-substituted hydroxyaryl derivatives” (Institute of Medicinal Molecular Design, Inc., priority 2002, dated 2009).

System: NF-κB activation
Assay: Inhibitory activity against NF-κB activation, luciferase reporter assay under TNF-α stimulation
Format: cell-based, human
Conditions: HepG2 cells, TNF-α 40 ng/ml, 4 hours; for inhibition at 1 µg/mL / inhibition at 10 µg/mL: Homo sapiens, read-out: Inhibitory Ratio of NF-κ B Activation(%)
Experimental: Inhibitory activity against NF-κB activation was measured by referring to the method of Hill et al. (Cell, (USA), in 1993, Vol. 73, No. 2, p. 395-406). Using a transfection reagent(Effectene; QIAGEN), the human hepatoma cell strain HepG2 was transfected with a plasmid (pNFκ Luc Reporter Plasmid; STRATAGENE) integrated with an oligonucleotide having five tandem copies of NF-κB binding sequences(TGGGGACTTTCCGC) on a upstream region of firefly luciferase gene (Luc) according to the QIAGEN's protocol, and the cells were incubated for 6 to 24 hours. Then the cells were cultured for 4 hours after the addition of TNF-α (40 ng/ml) in the presence of a test compound, and intracellular luciferase activity was measured by using PicaGene LT (TOYO INK MFG Co., Ltd.) and a chemical luminescence measurement apparatus(SPECTRAFluor Plus; TECAN). The inhibitory ratio was measured as a ratio relative to a value of the luciferase activity in the absence of the test compound.

| SMILES | Inhibitory Ratio of NF-κ B Activation(%) (Drug Concentration 1 μg/mL) | Inhibitory Ratio of NF-κ B Activation(%) (Drug Concentration 10 μg/mL) | inhibition at 1 µg/mL (Drug Concentration 1 μg/mL) [%] | inhibition at 10 µg/mL (Drug Concentration 10 μg/mL) [%] |
| --- | --- | --- | --- | --- |
| O=C(O)CN(CC(=O)O)C(=O)Oc1ccc(Cl)cc1C(=O)Nc1cc(C(F)(F)F)cc(C(F)(F)F)c1 [Compound 76] | 98.9 | 98.2 | – | – |
| O=C(Nc1cc(C(F)(F)F)cc(C(F)(F)F)c1)c1cc(Br)ccc1OC(=O)N1CCOCC1 [Compound 77, 5-Bromo-2-(morpholinocarbonyl)oxy-N-[3,5-bis(trifluoromethyl)phenyl]benzamide] | – | – | 69.7 | 31 |
| O=C(Nc1cc(C(F)(F)F)cc(C(F)(F)F)c1)c1cc(C(F)(F)F)ccc1OC(=O)N1CCOCC1 [Compound 79, 2-(Morpholinocarbonyl)oxy-5-trifluoromethyl-N-[3,5-bis(trifluoromethyl)phenyl]-benzamide] | – | – | 88.1 | 70.2 |
| O=C(Nc1cc(C(F)(F)F)cc(C(F)(F)F)c1)c1ccc(Cl)cc1OC(=O)N1CCOCC1 [Compound 80, 4-Chloro-2-(morpholinocarbonyl)oxy-N-[3,5-bis(trifluoromethyl)phenyl]benzamide] | – | – | 91.4 | 68.4 |
| O=C(Nc1cc(C(F)(F)F)cc(C(F)(F)F)c1)c1cc(-c2ccccc2)ccc1OC(=O)N1CCOCC1 [Compound 81, 2-(Morpholinocarbonyl)oxy-5-phenyl-N-[3,5-bis(trifluoromethyl)phenyl]benzamide] | – | – | 26.4 | 29.2 |
| O=C(Nc1cc(C(F)(F)F)cc(C(F)(F)F)c1)c1c(OC(=O)N2CCOCC2)ccc2ccccc12 [Compound 83, 2-(Morpholinocarbonyl)oxy-N-[3,5-bis(trifluoromethyl)phenyl]-1-naphthamide] | – | – | 23.5 | 18 |
| O=C(Nc1cc(C(F)(F)F)ccc1Cl)c1cc(Br)ccc1OC(=O)N1CCOCC1 [Compound 85, 5-Bromo-N-[2-chloro-5-(trifluoromethyl)phenyl]-2-[(morpholinocarbonyl)oxy]-benzamide] | – | – | 21.4 | 29.8 |
| COc1ccc(C(F)(F)F)cc1NC(=O)c1cc(Br)ccc1OC(=O)N1CCOCC1 [Compound 86, 5-Bromo-N-[2-methoxy-5-(trifluoromethyl)phenyl]-2-[(morpholinocarbonyl)oxy]-benzamide] | – | – | 23.4 | 11.9 |
| COc1cc(NC(=O)c2cc(Br)ccc2OC(=O)N2CCOCC2)cc(C(F)(F)F)c1 [Compound 87, 5-Bromo-N-[3-methoxy-5-(trifluoromethyl)phenyl]-2-[(morpholinocarbonyl)oxy]-benzamide] | – | – | 29.7 | 55.4 |
| O=C(Nc1cc(Cl)cc(Cl)c1)c1cc(Cl)ccc1OC(=O)N1CCOCC1 [Compound 89, 5-Chloro-N-(3,5-dichlorophenyl)-2-[(morpholinocarbonyl)oxy]benzamide] | – | – | 48.3 | 35.9 |
| CC(C)(C)C(=O)c1sc(NC(=O)c2cc(Cl)ccc2OC(=O)N2CCOCC2)nc1C(C)(C)C [Compound 92, 5-Chloro-N-{4-[(1,1-dimethyl)ethyl]-5-[(2,2-dimethyl)propionyl]thiazol-2-yl}-2-[(morpholinocarbonyl)oxy]benzamide] | – | – | 86.3 | 93.9 |
| COc1ccc(Cl)cc1C(=O)Nc1cc(C(F)(F)F)cc(C(F)(F)F)c1 [Compound 93] | 44.3 | 24.0 | – | – |
| COc1ccc(C(C)(C)C)cc1C(=O)Nc1cc(C(F)(F)F)cc(C(F)(F)F)c1 [Compound 94] | 56.1 | 51.7 | – | – |
| CCOc1ccc(Cl)cc1C(=O)Nc1cc(C(F)(F)F)cc(C(F)(F)F)c1 [Compound 95] | 31.3 | 71.4 | – | – |
| CC(C)Oc1ccc(Cl)cc1C(=O)Nc1cc(C(F)(F)F)cc(C(F)(F)F)c1 [Compound 96] | 54.1 | 96.1 | – | – |
| COCOc1ccc(Cl)cc1C(=O)Nc1cc(C(F)(F)F)cc(C(F)(F)F)c1 [Compound 97] | 21.6 | 94.4 | – | – |
| CC(=O)OCOc1ccc(Cl)cc1C(=O)Nc1cc(C(F)(F)F)cc(C(F)(F)F)c1 [Compound 98] | 94.9 | 96.6 | – | – |
| CC(C)(C)C(=O)OCOc1ccc(Cl)cc1C(=O)Nc1cc(C(F)(F)F)cc(C(F)(F)F)c1 [Compound 99] | 92.3 | 94.7 | – | – |
| CCOC(=O)OC(C)Oc1ccc(Cl)cc1C(=O)Nc1cc(C(F)(F)F)cc(C(F)(F)F)c1 (centres unmarked) [Compound 100] | 96.1 | 98.5 | – | – |

| SMILES | Inhibitory Ratio of NF-κ B Activation(%) (Drug Concentration 1 μg/mL) | Inhibitory Ratio of NF-κ B Activation(%) (Drug Concentration 10 μg/mL) | inhibition at 1 µg/mL (Drug Concentration 1 μg/mL) [%] | inhibition at 10 µg/mL (Drug Concentration 10 μg/mL) [%] |
| --- | --- | --- | --- | --- |
| O=C(Nc1cc(C(F)(F)F)cc(C(F)(F)F)c1)c1cc(Cl)ccc1OCOC(=O)N1CCCCC1 [Compound 101, 5-Chloro-2-[(piperidinocarbonyl)oxy]methoxy-N-[3,5-bis(trifluoromethyl)phenyl]-benzamide] | – | – | 41 | 42.8 |
| O=C(Nc1cc(C(F)(F)F)cc(C(F)(F)F)c1)c1cc(Cl)ccc1OCOC(=O)N1CCOCC1 [Compound 102, 5-Chloro-2-[(morpholinocarbonyl)oxy]methoxy-N-[3,5-bis(trifluoromethyl)phenyl]-benzamide] | – | – | 39.1 | 70 |
| CCOC(=O)C1CCN(C(=O)OCOc2ccc(Cl)cc2C(=O)Nc2cc(C(F)(F)F)cc(C(F)(F)F)c2)CC1 [Compound 103, 5-Chloro-2-({[4-(ethoxycarbonyl)piperidin-1-yl]carbonyl}oxy)methoxy-N-[3,5-bis(trifluoromethyl)phenyl]benzamide] | – | – | 40.4 | 45.9 |
| O=C(Nc1cc(C(F)(F)F)cc(C(F)(F)F)c1)c1cc(Cl)ccc1OCOC(=O)N1CCC(C(=O)O)CC1 [Compound 104] | 48.4 | 58.8 | – | – |
| CCOC(=O)CN(CC(=O)OCC)C(=O)OCOc1ccc(Cl)cc1C(=O)Nc1cc(C(F)(F)F)cc(C(F)(F)F)c1 [Compound 105, 2-({N,N-bis[(ethoxycarbonyl)methyl]carbamoyl}oxy)methoxy-5-chloro-N-[3,5-bis(trifluoromethyl)phenyl]benzamide] | – | – | 71.8 | 56 |
| O=C(O)CN(CC(=O)O)C(=O)OCOc1ccc(Cl)cc1C(=O)Nc1cc(C(F)(F)F)cc(C(F)(F)F)c1 [Compound 106] | 61.0 | 83.5 | – | – |
| O=C(Nc1cc(C(F)(F)F)cc(C(F)(F)F)c1)c1cc(Cl)ccc1OCCO [Compound 107] | 47.4 | 52.1 | – | – |
| O=C(O)COc1ccc(Cl)cc1C(=O)Nc1cc(C(F)(F)F)cc(C(F)(F)F)c1 [Compound 109] | 21.0 | 95.9 | – | – |
| O=C(COc1ccc(Cl)cc1C(=O)Nc1cc(C(F)(F)F)cc(C(F)(F)F)c1)OCc1ccccc1 [Compound 110, 2-[(benzyloxy)carbonyl]methoxy-5-chloro-N-[3,5-bis(trifluoromethyl)phenyl]-benzamide] | – | – | 38.5 | 39.2 |
| O=C(Nc1cc(C(F)(F)F)cc(C(F)(F)F)c1)c1cc(Cl)ccc1OCN1C(=O)c2ccccc2C1=O [Compound 111] | 94.3 | 96.0 | – | – |
| CC(=O)OC[C@H]1O[C@@H](Oc2ccc(Cl)cc2C(=O)Nc2cc(C(F)(F)F)cc(C(F)(F)F)c2)[C@H](OC(C)=O)[C@@H](OC(C)=O)[C@@H]1OC(C)=O [Compound 112] | 47.2 | 49.5 | – | – |
| O=c1oc2ccc(Cl)cc2c(=O)n1-c1cc(C(F)(F)F)cc(C(F)(F)F)c1 [Compound 113] | – | – | 96.8 | 97.9 |
| O=C1CCC(=O)N(c2cc(C(F)(F)F)cc(C(F)(F)F)c2)C(=O)c2cc(Cl)ccc2O1 [Compound 114] | – | – | 97.2 | 98.5 |
| COC(=O)C1Oc2ccc(Cl)cc2C(=O)N1c1cc(C(F)(F)F)cc(C(F)(F)F)c1 (centres unmarked) [Compound 115, 6-chloro-3,4-dihydro-4-oxo-3-[3,5-bis(trifluoromethyl)phenyl]-2H-1,3-benzoxazine-2-carboxylic acid methyl ester] | – | – | 41.8 | 92.2 |
| O=C(O)C1Oc2ccc(Cl)cc2C(=O)N1c1cc(C(F)(F)F)cc(C(F)(F)F)c1 (centres unmarked) [Compound 116] | – | – | 35.1 | 20.1 |
| COC(=O)CC1(C(=O)OC)Oc2ccc(Cl)cc2C(=O)N1c1cc(C(F)(F)F)cc(C(F)(F)F)c1 (centres unmarked) [Compound 117] | – | – | 34.8 | 56.7 |
| CCC(C)(C)c1ccc(Oc2ccccc2)c(-n2c(=O)oc3ccc(Cl)cc3c2=O)c1 [Compound 118, 6-Chloro-3-[5-(1,1-dimethyl)propyl-2-phenoxyphenyl]-3,4-dihydro-2H-1,3-benzoxazine-2,4-dione] | – | – | 94 | 97.4 |
| O=C(Nc1ccc(-c2ccccc2)cc1)c1cc(C(F)(F)F)ccc1OC(=O)N1CCOCC1 [Compound 119] | >99.9 | >99.9 | – | – |
